# Source: publication PMC8010149, “A Therapeutic Strategy to Combat HIV-1 Latently Infected Cells With a Combination of Latency-Reversing Agents Containing DAG-Lactone PKC Activators” (Frontiers in Microbiology, 2021)
# Experiments:
# [1] = tested on: HIV-1 latently infected ACH-2 cells; experiment: HIV-1 latency reversal, p24 antigen in supernatant, ACH-2 cells; type: cell-based; details: Human immunodeficiency virus 1, ACH-2, 48 h
# Method: (§1) The reactivation of HIV-1 from latently infected cells was determined by intracellular p24 protein expression and quantification of p24 antigen in the supernatant (ACH-2 and U1 cells), or by changes in intracellular green fluorescent protein (GFP) expression (J-Lat 10.6 cells). J-Lat ([Jordan et al., 2003]), ACH-2, or U1 cells (5 × 10^5 cells/ml) were seeded in 96-well plates and incubated with different drug concentrations for 24 h to collect the cells. The supernatant was collected after 48 h. The increase in supernatant p24 antigen levels was measured using a Lumipulse G1200 (FUJIREBIO, Tokyo, Japan). J-Lat cells (5 × 10^5 cells/ml) were placed in 48-well plates and incubated with different drug concentrations for 24 h. Intracellular p24 protein expression and GFP-positive cells were analyzed by flow cytometry.
# [2] = tested on: HIV-1 latently infected U1 cells; experiment: HIV-1 latency reversal, p24 antigen in supernatant, U1 cells; type: cell-based; details: Human immunodeficiency virus 1, 48 h
# Method: as §1
# U1 cells = experiment: Active caspase-3 by flow cytometry in U1 cells; type: cell-based; details: 10 µM, 24 h
# Method: (§2) The amount of intracellular HIV-1 p24 and the active form of caspase-3 were determined by flow cytometry, as previously described ([Matsuda et al., 2015], [2019]). In brief, ACH-2 and U1 cells (2.5 × 10^5 cells/ml) were fixed with 1% paraformaldehyde/PBS for 20 min and permeabilized with Flow Cytometry Perm Buffer (TONBO Biosciences, San Diego, CA, United States). After 5 min of incubation at room temperature, the cells were stained with FITC anti-HIV-1 p24 (24-4) monoclonal antibody (mAb; Santa Cruz Biotechnology, Dallas, TX, United States) or Alexa Fluor 647-conjugated anti-active caspase-3 (C92-605) mAb (BD Pharmingen, San Diego, CA, United States) for 30 min on ice. For T cell activation and exhaustion marker staining, PBMCs from healthy donors separated by the above density gradient centrifugation method were incubated with fixable viability stain Ghost Dye 780 (TONBO Biosciences) for 30 min on ice. […] Next, the cells were analyzed using BD FACSVerse (BD Biosciences). […] The collected data were analyzed using FlowJo software (Tree Star, San Carlos, CA, United States).
# [3] = Pharmacokinetics in mice, plasma concentration by LC-MS/MS; type: in vivo; details: BALB/c mice, 10 mg/kg subcutaneous
# Method: Blood was drawn from mice at 0.5, 1, 3, 6, 12, and 24 h after subcutaneous administration of YSE028 at a dose of 10 mg/kg. Plasma samples were prepared on ice. Blood was collected in a heparin tube and then separated at 5,000 rpm for 10 min at 4°C. Two hundred microliter of MeOH was added to 40 μl of mouse plasma immediately after plasma collection to terminate the enzymatic hydrolysis of YSE028 during sample preparation. All samples were vortexed for 10s and centrifuged at 12,000 g for 10 min at 4°C. The supernatant was then separated. Alectinib (10 ng/ml) in MeOH was used as an internal standard (IS) and added to the supernatant for liquid chromatography tandem mass spectrometry (LC-MS/MS) analysis.
# A Nexera X2 UHPLC system (Shimadzu, Kyoto, Japan) connected to a QTRAP5500 mass spectrometer (AB SCIEX, Framingham, MA, United States) was used for LC-MS/MS analysis. The separation of YSE028 and alectinib (IS) was performed using an XBridge C18 column (2.1 × 50 mm, 3.5 μm, Waters). The mobile phases consisted of 10 mM ammonium formate (A) and MeOH (B). The run time was 6 min with a flow rate of 0.5 ml/min. The oven temperature was set to 40°C, and the autosampler chamber was maintained at 4°C. The gradient elution program was set as follows: 0–3.0 min, 60–80% B; 3.1 min–4.0 min, 95% B; and 4.1 min–6 min, 60% B. The sample injection volume was 5 μl. The electrospray ionization interface in positive mode was used to perform tandem mass spectrometry (MS/MS). The MRM transition for YSE028 was m/z 313.1→187.1. The MS parameters were optimized as follows: desolvation temperature, 500°C; curtain gas (CUR), 40; collision gas (CAD), 7; ionspray voltage (IS), 4500v; ion source gas (GS1), 50 psi; ion source gas (GS2), 80 psi; declustering potential (DP), 110 v; entrance potential (EP), 10v; collision energy (CE), 13v; collision cell exit potential (CXP), 20v.
# [4] = tested on: HIV-1 latently infected ACH-2 cells; experiment: Intracellular HIV-1 p24 by flow cytometry in ACH-2 cells; type: cell-based; details: 24 h
# Method: as §1
# (§3) The amount of intracellular HIV-1 p24 and the active form of caspase-3 were determined by flow cytometry, as previously described ([Matsuda et al., 2015], [2019]). In brief, ACH-2 and U1 cells (2.5 × 10^5 cells/ml) were fixed with 1% paraformaldehyde/PBS for 20 min and permeabilized with Flow Cytometry Perm Buffer (TONBO Biosciences, San Diego, CA, United States). After 5 min of incubation at room temperature, the cells were stained with FITC anti-HIV-1 p24 (24-4) monoclonal antibody (mAb; Santa Cruz Biotechnology, Dallas, TX, United States) or Alexa Fluor 647-conjugated anti-active caspase-3 (C92-605) mAb (BD Pharmingen, San Diego, CA, United States) for 30 min on ice. For T cell activation and exhaustion marker staining, PBMCs from healthy donors separated by the above density gradient centrifugation method were incubated with fixable viability stain Ghost Dye 780 (TONBO Biosciences) for 30 min on ice. The cells were then stained with Brilliant Violet 510 anti-human CD3 (UCHT1) mAb (BioLegend), FITC anti-human CD4 (RPA-T4) mAb (TONBO Biosciences), PE-Cy7 anti-human CD8a (RPA-T8) mAb (TONBO Biosciences), PerCP-Cy5.5 anti-human CD38 (HB-7) mAb (BioLegend), PE anti-human CD69 (FN50) mAb (BioLegend), or Alexa Fluor 647 anti-human CD279/PD-1 (EH12.1) mAb (BD Biosciences, San Jose, CA, United States) for 30 min on ice. Next, the cells were analyzed using BD FACSVerse (BD Biosciences). In the analysis, unstained cells were used as a negative control to set the gating for each experiment. The collected data were analyzed using FlowJo software (Tree Star, San Carlos, CA, United States).
# [5] = tested on: CD4+ or CD8+ primary T cells; experiment: T cell activation, CD69 expression on CD4+ or CD8+ primary T cells; type: cell-based, human; details: 1 μM, 24 h, compared to prostratin and PEP005
# Method: as §2
# [6] = tested on: CD8+PD1+CD38+ primary T cells; experiment: Immune exhaustion markers, CD8+PD1+CD38+ primary T cells; type: cell-based, human; details: PBMCs from healthy donors, 24 h
# Method: as §3
compound,measurement,setting,value
CCCC(CCC)C(=O)OCC1(CO)CC(=C(C)C)C(=O)O1 (centres unmarked) [YSE028],EC50,[1],870 nM
same,EC50,[2],1810 nM
same,caspase-3 activation,U1 cells,22.7%
same,time within which the concentration in blood decreased rapidly,[3],≤ 3 h
same,peak concentration (median),[3]; plasma,5.14 ng/mL
same,Tmax,"[3]; mouse, sc, plasma, read-out: time of peak concentration",1 h
same,intracellular p24-positive live cells (flow cytometry quadrant),[4]; 0.1 µM,0.889
same,intracellular p24-positive live cells (flow cytometry quadrant),[4]; 1 µM,62
same,intracellular p24-positive live cells (flow cytometry quadrant),[4]; 10 µM,79.1
same,CD69+ cells in primary T cells (global T cell activation),[5],less effect
same,increase in CD8+ PD1+ CD38+ T cells,[6],only moderate
